pIC50: −log10 of the molar value.
System: Plasmodium berghei
Test: Luciferase/luciferin-expressing antifolate-resistant parasites were used to infect a culture of HepG2 cells that were pre-incubated with compounds. Infected hepatocytes emit light due to the luciferase reaction. Assay results are presented as the percent inhibition of light emission compared to control. […]
Type: functional
Conditions: sporozoite; for IC90: read-out: LUCIFERASE INFECTION ASSAY - IC90

Row | SMILES | IC90 [µM] | further results
1 | Cn1cc(-c2cnc3cnc(-c4ccncc4)cn23)cn1 | > 11.9 | pIC50 (HEPG2TOX_HILL_SLOPE 1.93, HEPG2TOX_R_SQUARED 0.473, PBLUC_HILL_SLOPE 0.98, PBLUC_R_SQUARED 0.306, read-out: LUCIFERASE INFECTION ASSAY - IC50): 5.00
2 | O=C1Nc2ccccc2/C1=C/c1ccccc1N1CCOCC1 | > 10.8 | pIC50 (HEPG2TOX_HILL_SLOPE 1.93, HEPG2TOX_R_SQUARED 0.799, PBLUC_HILL_SLOPE 2.49, PBLUC_R_SQUARED 0.295, read-out: LUCIFERASE INFECTION ASSAY - IC50): 5.23
3 | Cc1cc(C)c(S(=O)(=O)Nc2cc(C)nn2-c2ccccn2)c(C)c1 | 3.28 | pIC50 (HEPG2TOX_HILL_SLOPE 1.93, HEPG2TOX_R_SQUARED 0.937, PBLUC_HILL_SLOPE 16.1, PBLUC_R_SQUARED 0.725, read-out: LUCIFERASE INFECTION ASSAY - IC50): 5.54
4 | COc1ccc(C(OC(=O)c2ccccc2)c2nccc3ccccc23)cc1 (configuration not stated) | > 8.93 | pIC50 (HEPG2TOX_HILL_SLOPE 1.92, HEPG2TOX_R_SQUARED 0.889, PBLUC_HILL_SLOPE 0.417, PBLUC_R_SQUARED 0.183, read-out: LUCIFERASE INFECTION ASSAY - IC50): 5.24
5 | COc1ccc(-c2cc3ncnc(NCc4ccc(N5CCN(C)CC5)nc4)c3s2)cc1 | 4.79 | pIC50 (HEPG2TOX_HILL_SLOPE 1.93, HEPG2TOX_R_SQUARED 0.825, PBLUC_HILL_SLOPE 2.26, PBLUC_R_SQUARED 0.8, read-out: LUCIFERASE INFECTION ASSAY - IC50): 5.74
6 | N/C(=N\NC(=O)c1cccc(C(F)(F)F)c1)c1ccc(C(F)(F)F)cn1 | 1.42 | pIC50 (HEPG2TOX_HILL_SLOPE 1.95, HEPG2TOX_R_SQUARED 0.695, PBLUC_HILL_SLOPE 3.85, PBLUC_R_SQUARED 0.803, read-out: LUCIFERASE INFECTION ASSAY - IC50): 6.10
7 | COc1ccc(-c2cnc3cnc(-c4cccc(OC)c4F)cn23)cc1 | 4.49 | pIC50 (HEPG2TOX_HILL_SLOPE 1.94, HEPG2TOX_R_SQUARED 0.943, PBLUC_HILL_SLOPE 2.65, PBLUC_R_SQUARED 0.707, read-out: LUCIFERASE INFECTION ASSAY - IC50): 5.71
8 | N#Cc1c(Cl)cccc1N1CCCC1c1ccc2c(c1)OCCCO2 (configuration not stated) | > 10 | pIC50 (HEPG2TOX_HILL_SLOPE 1.92, HEPG2TOX_R_SQUARED 0.934, read-out: LUCIFERASE INFECTION ASSAY - IC50): < 5.00
9 | CCC(C)NC(=O)c1c(NC(=O)c2ccc(OC)cc2)nc2ccc(C)cn12 (configuration not stated) | > 8.67 | pIC50 (HEPG2TOX_HILL_SLOPE 1.94, HEPG2TOX_R_SQUARED 0.651, PBLUC_HILL_SLOPE 14.9, PBLUC_R_SQUARED 0.0352, read-out: LUCIFERASE INFECTION ASSAY - IC50): 5.11
10 | Cc1ccc(-n2nnnc2SCc2ccccc2Cl)c(C)c1 | > 9.97 | pIC50 (HEPG2TOX_HILL_SLOPE 1.94, HEPG2TOX_R_SQUARED 0.896, PBLUC_HILL_SLOPE 2.04, PBLUC_R_SQUARED 0.254, read-out: LUCIFERASE INFECTION ASSAY - IC50): 5.17
11 | COc1cc(C(=O)N2CC=C(c3c[nH]c4ccccc34)CC2)cc(Cl)c1OC | > 10 | pIC50 (HEPG2TOX_HILL_SLOPE 1.93, HEPG2TOX_R_SQUARED 0.934, PBLUC_HILL_SLOPE 11.8, PBLUC_R_SQUARED 0.218, read-out: LUCIFERASE INFECTION ASSAY - IC50): 5.05
12 | CCOc1ccc(-c2nnc(SCc3csc(Nc4ccc(C)cc4)n3)n2-c2ccccc2F)cc1 | > 10 | pIC50 (HEPG2TOX_HILL_SLOPE 1.93, HEPG2TOX_R_SQUARED 0.706, PBLUC_HILL_SLOPE 2.19, PBLUC_R_SQUARED 0.586, read-out: LUCIFERASE INFECTION ASSAY - IC50): 5.28
13 | O=C(Nc1ccc(CN2CCCC2)cc1)c1ccc(-n2cnc3ccccc32)cc1 | > 10 | pIC50 (HEPG2TOX_HILL_SLOPE 1.93, HEPG2TOX_R_SQUARED 0.859, PBLUC_HILL_SLOPE 3.59, PBLUC_R_SQUARED 0.621, read-out: LUCIFERASE INFECTION ASSAY - IC50): 5.24
14 | CC(C)c1ccc(Nc2nccc3nc(-c4cccc(F)c4)[nH]c23)cc1 | > 10 | pIC50 (HEPG2TOX_HILL_SLOPE 1.91, HEPG2TOX_R_SQUARED 0.651, PBLUC_HILL_SLOPE 0.872, PBLUC_R_SQUARED 0.722, read-out: LUCIFERASE INFECTION ASSAY - IC50): 5.86
15 | C/C(=N\O)c1cnc(-c2ccccc2)s1 | 14.8 | pIC50 (HEPG2TOX_HILL_SLOPE 1.93, HEPG2TOX_R_SQUARED 0.937, PBLUC_HILL_SLOPE 2.91, PBLUC_R_SQUARED 0.0759, read-out: LUCIFERASE INFECTION ASSAY - IC50): 5.16
16 | COc1cc(-c2[nH]nc3nccc(/C=C/c4ccccc4)c23)cc(OC)c1OC | 0.962 | pIC50 (HEPG2TOX_HILL_SLOPE 1.93, HEPG2TOX_R_SQUARED 0.947, PBLUC_HILL_SLOPE 2.35, PBLUC_R_SQUARED 0.701, read-out: LUCIFERASE INFECTION ASSAY - IC50): 6.42

Row | SMILES | IC90 [µM] | further results
17 | Cc1ccccc1-c1ccc(CN2CCC3(CC2)C(=O)N(C)C(=O)N3CC(C)C)cc1 | 3.99 | pIC50 (HEPG2TOX_HILL_SLOPE 1.94, HEPG2TOX_R_SQUARED 0.943, PBLUC_HILL_SLOPE 7.56, PBLUC_R_SQUARED 0.512, read-out: LUCIFERASE INFECTION ASSAY - IC50): 5.52
18 | O=C(Nc1cccc(Cl)c1)C1=COC2=NC(=O)N(Cc3ccccc3)CCN12 | > 10 | pIC50 (HEPG2TOX_HILL_SLOPE 1.91, HEPG2TOX_R_SQUARED 0.961, read-out: LUCIFERASE INFECTION ASSAY - IC50): < 5.00
19 | COc1ccc(OC)c(CCNc2nc3cnc(-c4ccc(Cl)cc4)cc3n2C)c1 | 3.74 | pIC50 (HEPG2TOX_HILL_SLOPE 1.93, HEPG2TOX_R_SQUARED 0.878, PBLUC_HILL_SLOPE 2.27, PBLUC_R_SQUARED 0.668, read-out: LUCIFERASE INFECTION ASSAY - IC50): 5.85
20 | CC(C)n1ncc2cc(C(=O)Nc3cccc4c3CCCC4)cnc21 | 8.92 | pIC50 (HEPG2TOX_HILL_SLOPE 1.91, HEPG2TOX_R_SQUARED 0.864, PBLUC_HILL_SLOPE 1.61, PBLUC_R_SQUARED 0.644, read-out: LUCIFERASE INFECTION ASSAY - IC50): 5.64
21 | Fc1ccc(CSc2nnnn2-c2ccc3c(c2)OCO3)c(Cl)c1 | 8.12 | pIC50 (HEPG2TOX_HILL_SLOPE 1.94, HEPG2TOX_R_SQUARED 0.929, PBLUC_HILL_SLOPE 1.23, PBLUC_R_SQUARED 0.52, read-out: LUCIFERASE INFECTION ASSAY - IC50): 5.86
22 | Cc1ccc(F)cc1C(=O)Nc1nc2ccccn2c1C(=O)NC1CCCCC1 | 1.12 | pIC50 (HEPG2TOX_HILL_SLOPE 1.92, HEPG2TOX_R_SQUARED 0.809, PBLUC_HILL_SLOPE 11.3, PBLUC_R_SQUARED 0.608, read-out: LUCIFERASE INFECTION ASSAY - IC50): 6.04
23 | CC(C)Nc1nc(-c2ccccc2CO)c2sc(-c3ccccc3)cc2n1 | 0.949 | pIC50 (HEPG2TOX_HILL_SLOPE 1.93, HEPG2TOX_R_SQUARED 0.921, PBLUC_HILL_SLOPE 16.9, PBLUC_R_SQUARED 0.634, read-out: LUCIFERASE INFECTION ASSAY - IC50): 6.08
24 | O=C(CSc1nnc(-c2c[nH]c3ccccc23)n1C1CC1)Nc1ccccc1N1CCCC1 | > 10 | pIC50 (HEPG2TOX_HILL_SLOPE 1.91, HEPG2TOX_R_SQUARED 0.598, PBLUC_HILL_SLOPE 0.845, PBLUC_R_SQUARED 0.661, read-out: LUCIFERASE INFECTION ASSAY - IC50): 5.44
25 | N#Cc1sc(SCc2ccccc2)c2c1CC(c1ccccc1)CC2=O (configuration not stated) | > 8.79 | pIC50 (HEPG2TOX_HILL_SLOPE 1.94, HEPG2TOX_R_SQUARED 0.866, PBLUC_HILL_SLOPE 1.6, PBLUC_R_SQUARED 0.401, read-out: LUCIFERASE INFECTION ASSAY - IC50): 5.13
26 | Cc1cc(C)c2c(=O)cc(C(=O)Nc3cccnc3)oc2c1 | 4.06 | pIC50 (HEPG2TOX_HILL_SLOPE 1.93, HEPG2TOX_R_SQUARED 0.965, PBLUC_HILL_SLOPE 5.85, PBLUC_R_SQUARED 0.609, read-out: LUCIFERASE INFECTION ASSAY - IC50): 5.55
27 | O=C(NCCCc1nc2ccccc2[nH]1)c1[nH]nc2ccccc12 | 1.48 | pIC50 (HEPG2TOX_HILL_SLOPE 1.95, 1.49, HEPG2TOX_R_SQUARED 0.808, 0.974, PBLUC_HILL_SLOPE 11.3, 2.85, PBLUC_R_SQUARED 0.579, 0.589, read-out: LUCIFERASE INFECTION ASSAY - IC50): 6.02
28 | Cc1cccc2c(=O)n(CC(=O)NCc3ccc(C(=O)N4CCCCC4)cc3)cnc12 | 3.14 | pIC50 (HEPG2TOX_HILL_SLOPE 1.92, HEPG2TOX_R_SQUARED 0.972, PBLUC_HILL_SLOPE 11.2, PBLUC_R_SQUARED 0.559, read-out: LUCIFERASE INFECTION ASSAY - IC50): 5.59
29 | Brc1cc2c(cc1CSc1ncnc3ccccc13)OCO2 | 1.53 | pIC50 (HEPG2TOX_HILL_SLOPE 1.93, HEPG2TOX_R_SQUARED 0.941, PBLUC_HILL_SLOPE 155, PBLUC_R_SQUARED 0.104, read-out: LUCIFERASE INFECTION ASSAY - IC50): 5.82
30 | CCn1c2ccccc2c2cc(Nc3c(C#N)c(=O)n(C)c(=O)n3C)ccc21 | 0.508 | pIC50 (HEPG2TOX_HILL_SLOPE 1.91, HEPG2TOX_R_SQUARED 0.9, PBLUC_HILL_SLOPE 11.3, PBLUC_R_SQUARED 0.663, read-out: LUCIFERASE INFECTION ASSAY - IC50): 6.38
31 | O=C1/C(=C/c2cc(Cl)ccc2O)NC(=S)N1Cc1ccccc1Cl | 1.37 | pIC50 (HEPG2TOX_HILL_SLOPE 1.93, HEPG2TOX_R_SQUARED 0.989, PBLUC_HILL_SLOPE 8.09, PBLUC_R_SQUARED 0.926, read-out: LUCIFERASE INFECTION ASSAY - IC50): 5.98

— ChEMBL document CHEMBL4483862, “Open-source discovery of chemical leads for next-generation chemoprotective antimalarials” (2018)
